2 molecules from publication PMC8376405 (Protein Science : A Publication of the Protein Society, 2021) can be followed below.

For one data set, the target named is T1, CtTrpAB (Chlamydia trachomatis, UniProt O84172).
T1 sequence (O84172 1-392): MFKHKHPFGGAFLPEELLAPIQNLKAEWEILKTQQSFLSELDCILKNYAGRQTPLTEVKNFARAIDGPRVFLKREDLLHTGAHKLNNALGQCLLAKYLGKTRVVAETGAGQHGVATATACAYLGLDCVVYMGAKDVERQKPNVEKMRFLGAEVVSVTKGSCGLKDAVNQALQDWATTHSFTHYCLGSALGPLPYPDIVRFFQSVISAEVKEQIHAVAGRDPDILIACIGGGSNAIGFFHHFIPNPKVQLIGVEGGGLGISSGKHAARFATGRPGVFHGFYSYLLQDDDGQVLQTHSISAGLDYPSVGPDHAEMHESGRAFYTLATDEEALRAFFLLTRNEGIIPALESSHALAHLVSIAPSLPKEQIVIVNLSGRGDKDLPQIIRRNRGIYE
T1 sequence (O84173 1-253 partner): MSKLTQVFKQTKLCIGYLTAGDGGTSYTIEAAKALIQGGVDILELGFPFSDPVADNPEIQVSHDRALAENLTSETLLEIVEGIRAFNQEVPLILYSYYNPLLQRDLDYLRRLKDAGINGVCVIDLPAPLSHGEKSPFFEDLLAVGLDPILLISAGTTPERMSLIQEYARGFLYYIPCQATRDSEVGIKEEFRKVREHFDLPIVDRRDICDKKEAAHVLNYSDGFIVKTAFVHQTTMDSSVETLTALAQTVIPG
The data set is described as follows: X-ray crystal structure, […] Å. The format is binding. The note with it: covalent adduct to beta Lys84 in TrpB; sulfate in the serine site.

Substrate in the data set “purified protein”: c1ccc2[nH]ccc2c1
In words: purified protein. The format is biochemical, Chlamydia trachomatis. Conditions: L-Ser co-substrate, 40 uM PLP, 100 mM KCl, pH 8.0, room temperature.

With `Cc1ncc(COP(=O)(O)O)c(C=O)c1O` [pyridoxal 5′-phosphate], the “X-ray crystal structure, 2.42 Å” value on CtTrpAB is “The CtTrpB active site, marked by the PLP adduct to βLys84”.

B1: CtTrpAB (Chlamydia trachomatis D/UW-3/CX) (protein)
chain: T1 sequence (O84172 1-392)
What is called kcat is the number of substrate molecules converted per active site and unit of time at saturation. On to B1, for which the kcat in the data set “purified protein” amounted to 0.352 s⁻¹.
